Patent publication US9233079B2, “Method for producing nanocapsules in the absence of an organic solvent, and nanocapsules produced thereby” (UNIVERSITE CLAUDE BERNARD LYON I, priority 2008, dated 2016)

Test: Saturation concentration of chlorhexidine base in water
Type: physicochemical
Protocol: The size and the zeta potential of the nanocapsules, determined using a Zetamaster® S, are 450 nm and −40 mV, respectively. The concentration of free (i.e. nonencapsulated) chiorhexidine in the nanocapsule suspension was determined after filtration of the colloidal suspension through a 0.22 μm filter. After dilution in distilled water, the concentration of chiorhexidine base free in the filtrate, determined by high performance liquid chromatography (HPLC) (H. Lboutounne, V. Faivre, F. Faison, and F. Pirot, Skin Pharmacology and Applied Skin Physiology 17: 176-182 (2004); H. Lboutounne, J.-F. Chaulet, C. Ploton, F. Faison, and F. Pirot Journal of Controlled Release 82: 319-334 (2002); D. T. T. Nhung, A.-M. Freydiere, H. Constant, F. Faison, and F. Pirot International Journal of Pharmaceutics 334:166-172 (2007)), was in the region of 0.008%, i.e. the saturation concentration of chiorhexidine base in water. The concentration of encapsulated chlorhexidine base was determined by virtue of the difference between the total concentration of chlorhexidine base in the suspension and the concentration of free chlorhexidine. The total concentration of encapsulated chiorhexidine base was determined after dilution of an aliquot of colloidal suspension in a mixture of acetonitrile/sodium acetate (30 mM) (50/50, v/v). […]

saturation concentration of chlorhexidine base in water: ~0.008%
SMILES: N=C(NCCCCCCNC(=N)NC(=N)Nc1ccc(Cl)cc1)NC(=N)Nc1ccc(Cl)cc1 [chlorhexidine base, Chlorhexidine base]
